Data as given in patent publication US20250327770A1, “Protein-Derived Peptide Multiplexes for Biomimetic Detection of VOC Profiles” (University of Washington, priority 2022, published 2025).
“Also recorded” adds a separate entry of the source.

Legend:
QCM VOC binding, ethanol = conditions: wet N2 gas stream
Method: (§1) VOC binding validation by QCM utilized chimeric molecular constructs tethered to a substrate in a VOC-doped gas stream. Gold QCM substrates (Qsense, Phoenix, AZ, USA) were coated with 10 nm thick carbon film by evaporation (SPI, West Chester, PA, USA). 10 μL of 1 μM aqueous peptide was deposited and incubated for 1 hour at room temperature, and then the sample was dried in a nitrogen gas stream. A KSV model Z500 QCM (Qsense, Phoenix, AZ, USA) was used to measure VOC binding to bare carbon (control), and peptide-coated substrates. Humidified nitrogen was measured as the baseline, then VOC was introduced by bubbling nitrogen through the VOC/deionized water mixture. The difference in resonant frequency between wet nitrogen and VOC mixture was reported, in which lower frequency indicated an increase in mass on the substrate due to VOC molecules binding to the surface.
(§2) Each of the six synthesized peptides was then tested against eight VOCs. The VOCs were chosen to include the targeted VOCs for all synthesized chimeric molecular constructs, plus ethanol as a common non-target. […] VOC adsorption caused damping of the QCM sensor—therefore, a higher affinity surface would produce a greater reduction in resonant frequency upon exposure to the gas stream. The concentration of the target VOC for each peptide was 20 μM, 10× lower than non-targets at 200 μM.

[1] = QCM VOC binding, ethyl butyrate; conditions: wet N2 gas stream
Method: as §1, §2

QCM VOC binding, nonanal = conditions: wet N2 gas stream
Method: as §1, §2

[2] = SPR adsorption of peptide onto bare gold; type: binding; conditions: 500 nM peptide concentration
Method: (§3) SPR (GE Healthcare, Biacore T200) was performed to validate specific adsorption of peptides onto a carbon substrate. Bare gold and carbon- and poly-L-lysine-functionalized substrates were used. Substrate fabrication used e-beam evaporation (CHA Industries, Solution Process Development System) of titanium (3-nm thick layer) then gold (47-nm thick layer) onto 1-cm^2 optical quality glass. A 20-nm thick carbon layer was sputtered (Kurt J. Lesker Company, Lab 18 Sputter System) onto the fabricated gold substrates at a rate of 10 Å per minute, and poly-L-lysine coatings were drop-cast incubated with 0.1% v/v poly-L-lysine for 30 minutes and rinsed with di-H2O, then air dried. A single-cycle kinetics curve was generated by sequential injection of MmedPep1-GBP peptide at 2-fold increasing concentrations up to 500 nM in buffer (100 mM KCl, 10 mM K+ phosphate). An injection flow rate of 30 μL/min and a temperature of 25° C. were used. Response values were plotted and fitted to a Langmuir isotherm curve by minimizing the sum of square differences between the dataset and the isotherm model.

[3] = SPR adsorption of peptide onto poly-L-lysine substrate; type: binding; conditions: 500 nM peptide concentration
Method: as §3

[4] = Peptide-sensitized CNT-FET sensor response to ethyl butyrate; conditions: gate voltage −1 V
Method: Sensors were placed in a box chamber that allowed gas flow into and out of the enclosure while allowing micromanipulator probes to be positioned on the sensor chip contact pads. Gas flow impinged directly above the sensor chip with a continuous flow rate of 50-60 SCCM as controlled by a flowmeter (Matheson, model FM-1050, Montgomeryville, PA, USA).
After placing the sensor chip into the gas chamber, a nitrogen purge of 2-3 minutes at 4 to 5 PSI in the gas line was performed in order to flush out ambient air trapped within the box enclosure. Transfer curve measurements were performed to determine sensor characteristics. The chip was then equilibrated in humidified N2 (“wet N2”) for 30-60 min by flowing in nitrogen gas that has passed through a gas bubbler filled with water. Sensor measurements were taken at this point to establish sensor baseline signal.
For peptide sensitization of the CNT sensing channel, the chip was removed from the gas chamber and dropcasted with 1.5 μL 100 μM peptide diluted in di-H2O. Peptide solution was pipetted directly onto the CNT sensing regions of the multiplexed chip and incubated for 60 minutes in a humidified environment to prevent evaporation. Devices were then spin dried by centrifugal force at 2,000 g. Sensor measurements were taken again after replacing the chip back into the gas chamber, purging with N2, and equilibrating in wet N2 for 30-60 min. Finally, the peptide-functionalized chip was exposed to humidified ethyl butyrate for 60-90 min before sensor measurements were taken.
Transfer curves were generated for each of the following experimental conditions: 1) Bare CNT sensors (i.e., non-functionalized) under non-humidified N2 gas exposure; 2) non-functionalized sensors under humidified N2 gas exposure; 3) peptide-functionalized sensors under humidified N2 gas exposure; and 4) peptide-functionalized sensors exposed to ethyl butyrate in humidified N2 carrier gas. Signal response was based on normalized source-drain current values obtained from the reverse sweep of the transfer curve at a gate potential of −1 V (Vg=−1 V), which was determined to be within the subthreshold voltage region for ethyl butyrate-exposed, peptide-functionalized sensors. […] Signal responses were normalized to their corresponding width-to-length CNT sensing channel dimensions. Mean signal response for each condition was calculated from a total of 9 to 13 technical replicates measured across two independent experiments (N=2).
Two VOC and C-binding peptides were used in order to functionalize CNT-FET devices and test their sensitivity to ethyl butyrate:MmedPep1-GrBP and BhorPep1-GrBP, which were predicted to bind to ethyl butyrate and a range of aldehydes and alkanes, respectively. […] However, the effect was reversed under ethyl butyrate exposure for CNT channels functionalized with MmedPep1-GrBP (FIG. 7B). Specifically, upon exposure to 378 mM ethyl butyrate solution (5% v/v in H2O), MmedPep1-GrBP-sensitized CNT-FET sensors measured 1.21±0.43 μA of current, compared to 0.20±0.9 μA for the aldehyde-sensitive BhorPep1-GrBP (p<0.001), as shown in FIG. 7C.

[5] = SPR adsorption of peptide onto carbon substrate; type: binding
Method: as §3

QCM VOC binding, octanal = conditions: wet N2 gas stream
Method: as §1, §2

[6] = 378 mM ethyl butyrate solution (5% v/v in H2O), Vsd=−5 V

Sequence: VGGGAGRGNGGGYSSY [MmedPep1s-GrBP, glycine spacer variant of MmedPep1-GrBP; target ethyl butyrate]
- affinity for ethanol (QCM) (QCM VOC binding, ethanol): reduced affinity
- ethyl butyrate binding preference (QCM) [1]: strongly selective

Sequence: SHFVGGGYSSY [HcunPep1-GrBP, chimeric construct from HcunPBP3; target nonanal]
- nonanal affinity (QCM) (QCM VOC binding, nonanal): notable

Sequence: VGARNGGGYSSY [MmedPep1-GrBP, target ethyl butyrate]
- SPR signal [2]: 18.4±1.7 RU
- SPR signal [3]: 6.5±2.9 RU
- source-drain current upon ethyl butyrate exposure [4, 6]: 1.21±0.43 μA
- source-drain current upon ethyl butyrate exposure ([4]; Vds=−3 V): 0.542±0.721 μA
- CNT-FET signal response to ethyl butyrate exposure (in words) [4]: robust signal response
- SPR signal ([5]; 500 nM peptide concentration, carbon-coated gold surface): 158.4±44.1 RU
- substrate preference of adsorption (carbon vs gold, poly-L-lysine) ([5]; SPR): specific preference for the carbon substrate; also recorded: specific absorption

Sequence: GIVLLATYEKIISIYFIFFGGGYSSY [BhorPep1-GrBP, chimeric construct from BhorOBPm2; targets aldehydes and alkanes]
- source-drain current upon ethyl butyrate exposure [4, 6]: 0.20±0.9 μA
- source-drain current upon ethyl butyrate exposure ([4]; Vds=−3 V): 0.038±0.020 μA
- CNT-FET signal response to ethyl butyrate exposure (in words) [4]: respond weakly
- octanal affinity (QCM) (QCM VOC binding, octanal): notable
